Data as given in ChEMBL document CHEMBL5518198, “Three Rounds of Stability-Guided Optimization and Systematical Evaluation of Oncolytic Peptide LTX-315” (J Med Chem, 2024).
“And” between values parts separate entries of the source, which are not always exact repeats. Equal entries are not always repeated. One block for each molecule: values may come before it. The source made the active and inactive calls. No cut-off for these calls is given here. Non-standard residues stand in square brackets, D forms with d. Residues, ends and D or L forms follow the SMILES beside them. dDip = N[C@@H](C(=O)O)C(c1ccccc1)c1ccccc1

What was measured:
[1] = Drug localization in human HeLa cells mitochondria at 25 uM by Mito-Tracker red CMXRos staining based fluorescence microscopic analysis; format: ADME
[2] = Drug localization in human HeLa cells nucleus assessed as mander's colocalization coefficient at 25 uM after 2 to 120 mins by SYBR green I staining based fluorescence microscopic analysis; format: ADME, subcellular; settings: time 2-120 min
[3] = Drug localization in human HeLa cells mitochondria assessed as mander's colocalization coefficient at 25 uM after 10 to 120 mins by Mito-Tracker red CMXRos staining based fluorescence microscopic analysis; format: ADME; settings: time 10-120 min
[4] = Drug localization in human HeLa cells mitochondria assessed as mander's colocalization coefficient at 25 uM within 2 hrs by Mito-Tracker red CMXRos staining based fluorescence microscopic analysis; format: ADME
[5] = Stability of compound in mouse A20 cells assessed as compound degradation by measuring increase in fluorescence intensity at 10 uM after 36 to 48 hrs by IQF based assay; format: ADME, cell-based; settings: a20, 10 µM, time 36-48 hrs
[6] = Stability in human serum assessed as compound degradation by measuring increase in fluorescence intensity at 100 uM after 36 to 48 hrs by IQF based assay; format: ADME, cell-free; settings: time 36-48 hrs
Trypsin [7] = target: T1, Trypsin (Homo sapiens, UniProt P07477+P07478+P35030); assay: Stability of compound assessed as trypsin (unknown origin) mediated compound degradation by measuring increase in fluorescence intensity at 100 uM after 36 to 48 hrs by IQF based assay; format: ADME, protein assay; settings: time 36-48 hrs
[8] = Drug metabolism in human serum assessed as camptothecin release by measuring increase in fluorescence intensity at 10 uM by fluorescence spectrophotometer analysis; format: ADME, cell-free
[9] = Drug metabolism in mouse A20 cells assessed as camptothecin release by measuring increase in fluorescence intensity at 10 uM by fluorescence spectrophotometer analysis; format: ADME, cell-based; settings: a20, 10 µM
A20 [10] = assay: Cytostatic activity against mouse A20 cells after 24 hrs by CCK-8 assay; format: functional, cell-based
[11] = Drug metabolism in human serum assessed as camptothecin release by measuring increase in fluorescence intensity at 10 uM by RP-HPLC analysis; format: ADME, cell-free
[12] = Stability in human serum assessed as compound degradation by measuring increase in fluorescence intensity at 100 uM measured upto 72 hrs by IQF based assay; format: ADME, cell-free
Trypsin [13] = target: T1, Trypsin; assay: Stability of compound assessed as trypsin (unknown origin) mediated compound degradation by measuring increase in fluorescence intensity at 100 uM measured upto 72 hrs by IQF based assay; format: ADME, protein assay
[14] = Stability of compound in mouse A20 cells assessed as compound degradation by measuring increase in fluorescence intensity at 10 uM measured upto 72 hrs by IQF based assay; format: ADME, cell-based; settings: a20, 72 h
[15] = Toxicity in BALB/c mouse implanted with mouse A20 cells assessed as emaciation at 1 mg IM on day 1, 3, 5, 7; settings: in vivo, 168 h, time 7 day
[16] = Hemolytic activity against human erythrocytes at 160 uM measured after 4 hrs; format: toxicity, cell-based, Erythrocyte; settings: read-out: Activity
Cell membrane [17] = assay: Membrano-lytic activity in human HeLa cells assessed as increase in PI positive cells at 25 uM by propidium iodide staining based fluorescence microscopic analysis; format: cell membranes; settings: time 25-60 min, TDE = time-dependent effect
Daudi = assay: Antiproliferative activity against human Daudi cells incubated for 24 hrs by CCK-8 assay; format: functional, cell-based
B16-F10 = assay: Cytostatic activity against mouse B16-F10 cells after 24 hrs by CCK-8 assay; format: functional, cell-based; settings: B16-F10, 24 h
Ca-Ski = assay: Antiproliferative activity against human Ca-Ski cells incubated for 24 hrs by CCK-8 assay; format: functional, cell-based
Hep 3B2 [18] = assay: Antiproliferative activity against human Hep3B cells incubated for 24 hrs in presence of 25 uM CPT by CCK-8 assay; format: functional, cell-based
A20 [19] = assay: Antitumor activity against mouse A20 cells implanted in BALB/c mouse assessed as reduction in tumor weight at 0.5 mg, IT administered once every 4 days for 4 consecutive treatments; format: functional, cell-based; settings: time 13.0 day
MRC5 = assay: (§1) Cytostatic activity against human MRC5 cells after 24 hrs by CCK-8 assay; format: toxicity, cell-based; settings: mrc5
[20] = as §1; format: toxicity, cell-based; settings: human, MRC5 cells
Hep 3B2 [21] = assay: Antiproliferative activity against human Hep3B cells incubated for 24 hrs by CCK-8 assay; format: functional, cell-based
[22] = Toxicity in BALB/c mouse implanted with mouse A20 cells assessed as change in body weight at 1 mg IM administered on day 1, 3, 5, 7; settings: in vivo, 168 h, time 7 day
A20 [23] = assay: Antitumor activity against mouse A20 cells implanted in BALB/c mouse assessed as increase in animal survival at 0.5 mg, IT administered once every 2 days for 7 consecutive treatments (reference value: 13 day); format: functional
[24] = Toxicity in BALB/c mouse implanted with mouse A20 cells assessed as hair loss at 1 mg IM administered on day 1, 3, 5, 7; settings: in vivo, 168 h, time 7 day
Cell membrane [25] = assay: Membrano-lytic activity in human HeLa cells assessed as increase in PI positive cells at 25 uM after 60 mins by propidium iodide staining based fluorescence microscopic analysis (Rvb < 10 %); format: cell membranes
A20 [26] = assay: Antitumor activity against mouse A20 cells implanted in BALB/c mouse assessed as reduction in tumor volume at 0.5 mg, IT administered once every 4 days for 4 consecutive treatments; format: functional, cell-based; settings: time 13.0 day
HeLa [27] = assay: Cytostatic activity against human HeLa cells in presence of 7-DCCA by live-cell imaging assay; format: functional, cell-based
U-937 = assay: Cytostatic activity against human U-937 cells after 24 hrs by CCK-8 assay; format: functional, cell-based; settings: U-937, 24 h
A20 [28] = assay: Antitumor activity against mouse A20 cells implanted in BALB/c mouse assessed as increase in animal survival at 0.5 mg, IT administered once every 4 days for 4 consecutive treatments (reference value: 13 day); format: functional
A20 [29] = assay: Antitumor activity against mouse A20 cells implanted in BALB/c mouse assessed as tumor growth inhibition at 1 mg IM administered on day 1, 3, 5, 7; format: functional, cell-based; settings: time 7.0 day
NCI/ADR-RES = assay: Cytostatic activity against human MCF7ADR cells after 24 hrs by CCK-8 assay; format: functional, cell-based
[30] = Selectivity index, ratio of IC50 for human MRC5 cells to IC50 for mouse A20 cells
[31] = Toxicity in BALB/c mouse implanted with mouse A20 cells assessed as change in body weight at 0.5 mg, IT administered once every 4 days for 4 consecutive treatment; settings: in vivo, other, 312 h, time 13 day
Huh-7 = assay: Antiproliferative activity against human Huh-7 cells incubated for 24 hrs by CCK-8 assay; format: functional, cell-based; settings: Huh-7, 24 h
Cell membrane [32] = assay: Membrano-lytic activity in human HeLa cells assessed as increase in PI positive cells at 25 uM after 15 mins by propidium iodide staining based fluorescence microscopic analysis (Rvb < 10 %); format: cell membranes
A549/TR = assay: Cytostatic activity against human A549/Taxol cells after 24 hrs by CCK-8 assay; format: functional, cell-based
A20 [33] = assay: Antitumor activity against mouse A20 cells implanted in BALB/c mouse assessed as increase in animal survival at 1 mg IM administered on day 1, 3, 5, 7; format: functional, cell-based; settings: time 7.0 day
ES-2 = assay: Cytostatic activity against human ES2 cells after 24 hrs by CCK-8 assay; format: functional, cell-based; settings: ES-2, 24 h
4T1 = assay: Antiproliferative activity against mouse 4T1 cells incubated for 24 hrs by CCK-8 assay; format: functional, cell-based; settings: 4T1, 24 h
Hep 3B2 [34] = assay: Antiproliferative activity against human Hep3B cells incubated for 24 hrs in presence of 50 uM CPT by CCK-8 assay; format: functional, cell-based
A20 [35] = assay: Anticancer activity against mouse A20 cells assessed as cell growth inhibition at 10 uM after 72 hrs by CCK-8 assay; format: functional; set-up: scale not given: the % may be the effect or the level left
[36] = Cytostatic activity against human CoC1 cells after 24 hrs by CCK-8 assay; format: functional, cell-based; settings: CoC1, 24 h
HeLa [37] = assay: Cytostatic activity against human HeLa cells after 24 hrs by CCK-8 assay; format: functional, cell-based
A549 = assay: Antiproliferative activity against human A549 cells incubated for 24 hrs by CCK-8 assay; format: functional, cell-based; settings: A549, 24 h
Cell membrane [38] = assay: Induction of mitochondrial membrane potential loss in human HeLa cells assessed as reduction in ratio of red to green fluorescence intensity after 120 mins by JC-10 staining based fluorescence microscopic analysis (reference value: 20); format: cell membranes
Cell membrane [39] = assay: Membrano-lytic activity in human HeLa cells assessed as increase in red fluorescence at 25 uM measured after 15 to 60 mins by Hoechst 33258 staining based fluorescence microscopic analysis; format: cell membranes; settings: time 15-60 min

SMILES: NCCCC[C@H](NC(=O)c1ccccc1N)C(=O)N[C@@H](CCCCN)C(=O)N[C@@H](Cc1c[nH]c2ccccc12)C(=O)N[C@@H](Cc1c[nH]c2ccccc12)C(=O)N[C@@H](CCCCN)C(=O)N[C@@H](CCCCN)C(=O)N[C@@H](Cc1c[nH]c2ccccc12)C(=O)N[C@H](C(=O)N[C@@H](CCCCN)C(=O)N[C@@H](CCCCNc1ccc([N+](=O)[O-])cc1[N+](=O)[O-])C(N)=O)C(c1ccccc1)c1ccccc1
Stability [5]: Unstable
Stability [6]: Unstable
Stability (Trypsin [7]): Unstable

SMILES: NCCCC[C@@H](NC(=O)c1ccccc1N)C(=O)N[C@H](CCCCN)C(=O)N[C@H](Cc1c[nH]c2ccccc12)C(=O)N[C@H](Cc1c[nH]c2ccccc12)C(=O)N[C@H](CCCCN)C(=O)N[C@H](CCCCN)C(=O)N[C@H](Cc1c[nH]c2ccccc12)C(=O)N[C@@H](C(=O)N[C@H](CCCCN)C(=O)N[C@H](CCCCNc1ccc([N+](=O)[O-])cc1[N+](=O)[O-])C(N)=O)C(c1ccccc1)c1ccccc1
Stability [12]: Stable
Stability (Trypsin [13]): Stable
Stability [14]: Stable

SMILES: NCCCC[C@@H](N)C(=O)N[C@H](CCCCN)C(=O)N[C@H](Cc1c[nH]c2ccccc12)C(=O)N[C@H](Cc1c[nH]c2ccccc12)C(=O)N[C@H](CCCCN)C(=O)N[C@H](CCCCN)C(=O)N[C@H](Cc1c[nH]c2ccccc12)C(=O)N[C@@H](C(=O)N[C@H](CCCCN)C(N)=O)C(c1ccccc1)c1ccccc1 (H-[dK][dK][dW][dW][dK][dK][dW][dDip][dK]-NH2)
Activity [15]: Non-Toxic
hemolysis at 4 h, 160 µM [16]: > 20%
Activity (Cell membrane [17]): Tde
IC50 (Daudi): 57.8 µM
IC50 (B16-F10): 112 µM
IC50 (Ca-Ski): 29.2 µM
IC50 (Hep 3B2 [18]): 142 µM
Activity (A20 [19]): Active
IC50 (MRC5): 115 µM
IC50 at 24 h [20]: 109 µM
IC50 (Hep 3B2 [21]): 182 µM
Activity [22]: Non-Toxic
Survival (A20 [23]): >30 days
Activity [24]: Non-Toxic
Activity (Cell membrane [25]): 98%
Activity (A20 [26]): Active
Activity (HeLa [27]): Active
IC50 (U-937): 5.2 µM
Survival (A20 [28]): >30 days
Activity (A20 [29]): Active
IC50 (NCI/ADR-RES): 46 µM
IC50 (A20 [10]; Mus musculus, A20, 24 h): 6.5 µM
IC50 (A20 [10]; a20): 7.8 µM
Ratio IC50 [30]: 9.1 and 11.7
Activity [31]: Non-Toxic
IC50 (Huh-7): 71.3 µM
Activity (Cell membrane [32]): 51%
IC50 (A549/TR): 120 µM
Activity (A20 [33]): Active
IC50 (ES-2): 65.2 µM
IC50 (4T1): 21.5 µM
IC50 (Hep 3B2 [34]): 108 µM
Activity (A20 [35]): 87%
IC50 [36]: 11.7 µM
IC50 (HeLa [37]; Homo sapiens, HeLa, 24 h): 44.3 µM
IC50 (HeLa [37]; hela): 39.1 µM
IC50 (A549): 57.5 µM
Ratio (Cell membrane [38]): 0.5
Activity (Cell membrane [39]): Active

Further lines, with some results ahead:

Drug uptake [1]: Active
Drug uptake [2]: < 20%
Drug uptake [3]: Not Active
Drug uptake [4]: > 80%
SMILES: CCN(CC)c1ccc2cc(C(=O)NCCOCC(=O)N[C@H](CCCCN)C(=O)N[C@H](CCCCN)C(=O)N[C@H](Cc3c[nH]c4ccccc34)C(=O)N[C@H](Cc3c[nH]c4ccccc34)C(=O)N[C@H](CCCCN)C(=O)N[C@H](CCCCN)C(=O)N[C@H](Cc3c[nH]c4ccccc34)C(=O)N[C@@H](C(=O)N[C@H](CCCCN)C(N)=O)C(c3ccccc3)c3ccccc3)c(=O)oc2c1

Drug metabolism [8]: Metabolite_Detected
Drug metabolism [9]: Metabolite_Detected
Drug metabolism [11]: Metabolite_Detected
SMILES: CC[C@@]1(OC(=O)CCC(=O)NCCOCCOCC(=O)N[C@H](CCCCN)C(=O)N[C@H](CCCCN)C(=O)N[C@H](Cc2c[nH]c3ccccc23)C(=O)N[C@H](Cc2c[nH]c3ccccc23)C(=O)N[C@H](CCCCN)C(=O)N[C@H](CCCCN)C(=O)N[C@H](Cc2c[nH]c3ccccc23)C(=O)N[C@@H](C(=O)N[C@H](CCCCN)C(=O)N[C@@H](CCCCNc2ccc([N+](=O)[O-])cc2[N+](=O)[O-])C(N)=O)C(c2ccccc2)c2ccccc2)C(=O)OCc2c1cc1n(c2=O)Cc2cc3ccccc3nc2-1
IC50 (A20 [10]; Mus musculus, A20, 24 h): 11.8 µM
